Assay results: ChEMBL document CHEMBL1201862, “PubChem BioAssay data set” (2004)
Calls of active or inactive are those of the source.

How the values were obtained:
[1] = target: Trypsin (Sus scrofa, UniProt P00761); assay: porcine trypsin inhibitors, dose response, selectivity assay for Rce1 protease inhibitor project, biochemical, quenched peptide fluorescence, cherry-pick (AID 488789)
[2] = target: T1, CAAX prenyl protease 2 (Homo sapiens, UniProt Q9Y256); assay: human Rce1 protease inhibitors, dose response, biochemical, yeast membranes, quenched-peptide fluorescence, cherry-pick (AID 588849)
T1 sequence (Q9Y256 whole entry): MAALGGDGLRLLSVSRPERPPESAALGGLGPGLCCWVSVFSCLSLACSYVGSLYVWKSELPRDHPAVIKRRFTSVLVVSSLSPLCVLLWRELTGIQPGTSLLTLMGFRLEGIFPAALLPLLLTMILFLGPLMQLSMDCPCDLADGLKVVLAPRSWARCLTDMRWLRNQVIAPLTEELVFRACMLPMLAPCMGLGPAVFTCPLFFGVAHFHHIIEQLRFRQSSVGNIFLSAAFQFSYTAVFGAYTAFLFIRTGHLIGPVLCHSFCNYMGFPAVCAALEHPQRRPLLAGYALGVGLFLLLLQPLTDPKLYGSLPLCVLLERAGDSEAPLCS

[3] = target: T2, E3 ubiquitin-protein ligase XIAP (Homo sapiens, UniProt P98170); assay: XIAP antagonists, biochemical, IAP family, fluorescence polarization (AID 1018); format: functional
[4] = target: T2, E3 ubiquitin-protein ligase XIAP; assay: Counter Screen using XIAP-Bir3 for Chemical Antagonists of Bir1/2 domains of IAP-family anti-apoptotic proteins. [Related pubchem assays (depositor defined):AID1018, AID1449, AID1514, AID1638, AID1749, AID1750, AID488957, AID488963]
[5] = target: T3, Zinc finger protein mex-5 (Caenorhabditis elegans, UniProt Q9XUB2); assay: MEX-5/TCR-2 RNA interaction inhibitors, dose response, biochemical, C. elegans, fluorescence polarization (AID 1960)
T3 sequence (Q9XUB2 whole entry): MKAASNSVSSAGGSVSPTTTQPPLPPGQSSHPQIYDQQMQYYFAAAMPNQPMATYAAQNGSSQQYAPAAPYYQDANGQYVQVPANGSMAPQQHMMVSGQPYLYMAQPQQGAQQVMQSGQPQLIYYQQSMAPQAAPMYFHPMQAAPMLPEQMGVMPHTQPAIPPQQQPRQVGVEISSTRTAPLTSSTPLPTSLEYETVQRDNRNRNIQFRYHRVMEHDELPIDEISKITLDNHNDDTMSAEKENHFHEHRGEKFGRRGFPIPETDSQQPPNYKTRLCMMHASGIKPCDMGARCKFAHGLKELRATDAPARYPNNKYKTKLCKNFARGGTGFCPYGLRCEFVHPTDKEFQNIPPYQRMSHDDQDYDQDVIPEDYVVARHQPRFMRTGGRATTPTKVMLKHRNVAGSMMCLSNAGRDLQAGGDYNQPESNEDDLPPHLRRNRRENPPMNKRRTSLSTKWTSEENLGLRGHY

[6] = target: T4, RNA-binding protein pos-1 (Caenorhabditis elegans, UniProt G5EF15); assay: inhibitors of POS-1/mex-3 RNA binding, dose response, biochemical, fluorescence polarization (AID 1964);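 further: purified POS-1 fused to maltose binding protein made in E. coli; potency of compounds blocking POS-1 binding to fluorescent RNA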
T4 sequence (G5EF15 whole entry): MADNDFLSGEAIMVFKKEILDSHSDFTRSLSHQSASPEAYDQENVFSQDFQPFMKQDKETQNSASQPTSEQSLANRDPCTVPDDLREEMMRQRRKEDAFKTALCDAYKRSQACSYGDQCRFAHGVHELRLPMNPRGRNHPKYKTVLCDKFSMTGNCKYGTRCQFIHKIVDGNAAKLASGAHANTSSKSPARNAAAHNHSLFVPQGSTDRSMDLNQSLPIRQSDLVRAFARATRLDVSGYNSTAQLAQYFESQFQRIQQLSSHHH

[7] = target: T5, CAAX prenyl protease 2 (Saccharomyces cerevisiae S288c, UniProt Q03530); format: biochemical
T5 sequence (Q03530 whole entry): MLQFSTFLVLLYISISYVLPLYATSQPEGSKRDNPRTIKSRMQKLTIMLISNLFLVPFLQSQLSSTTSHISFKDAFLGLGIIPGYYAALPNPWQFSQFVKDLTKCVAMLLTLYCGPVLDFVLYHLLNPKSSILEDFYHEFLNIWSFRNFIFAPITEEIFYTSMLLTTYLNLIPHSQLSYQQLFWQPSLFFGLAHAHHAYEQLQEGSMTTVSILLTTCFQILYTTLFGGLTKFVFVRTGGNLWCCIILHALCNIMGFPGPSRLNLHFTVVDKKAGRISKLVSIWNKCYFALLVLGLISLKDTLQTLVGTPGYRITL

[8] = tested on: INS1; assay: beta cell apoptosis inhibitors, cytokine rescue, dose response, luminescence, retest (AID 449756); format: functional, cell-based; settings: Rattus norvegicus;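 further: cell death triggered by IL-1 beta plus TNF-alpha plus IFN-gamma mixture; protective hits raise ATP signal compared with cytokine alone wells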
[9] = target: T6, Hexokinase HKDC1 (Homo sapiens, UniProt Q2TB90); assay: HKDC1 hexokinase inhibitors, dose response, biochemical, W721R variant (AID 504729); format: functional
T6 sequence (Q2TB90 whole entry): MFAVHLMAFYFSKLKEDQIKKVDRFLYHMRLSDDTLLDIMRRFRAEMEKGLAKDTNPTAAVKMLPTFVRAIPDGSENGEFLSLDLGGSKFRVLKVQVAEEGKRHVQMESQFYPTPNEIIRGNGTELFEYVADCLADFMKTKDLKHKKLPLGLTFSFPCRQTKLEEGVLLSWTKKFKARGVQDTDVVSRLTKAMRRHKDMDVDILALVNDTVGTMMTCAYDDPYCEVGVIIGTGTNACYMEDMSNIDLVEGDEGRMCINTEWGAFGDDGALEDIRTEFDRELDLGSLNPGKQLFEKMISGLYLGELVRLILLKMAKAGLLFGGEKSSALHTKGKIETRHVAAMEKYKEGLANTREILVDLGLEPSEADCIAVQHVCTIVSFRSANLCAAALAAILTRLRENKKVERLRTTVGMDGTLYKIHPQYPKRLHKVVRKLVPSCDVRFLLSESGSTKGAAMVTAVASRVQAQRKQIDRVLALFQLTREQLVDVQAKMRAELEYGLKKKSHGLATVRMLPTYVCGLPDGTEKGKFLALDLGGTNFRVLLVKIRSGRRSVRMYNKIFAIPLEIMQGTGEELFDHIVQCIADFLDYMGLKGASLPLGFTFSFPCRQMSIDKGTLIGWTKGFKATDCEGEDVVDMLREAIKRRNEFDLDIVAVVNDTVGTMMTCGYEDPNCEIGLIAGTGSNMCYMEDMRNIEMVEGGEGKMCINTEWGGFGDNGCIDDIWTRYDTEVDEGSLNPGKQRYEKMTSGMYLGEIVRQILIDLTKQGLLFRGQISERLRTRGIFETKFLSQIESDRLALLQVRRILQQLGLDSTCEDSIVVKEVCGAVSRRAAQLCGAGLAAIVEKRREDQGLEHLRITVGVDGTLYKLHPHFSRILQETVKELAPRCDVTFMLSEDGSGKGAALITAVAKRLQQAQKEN

[10] = THP-1 cell cytotoxicity, dose response, cytotoxicity control for non-replicating M. tuberculosis project (AID 489025); format: functional
[11] = cells; format: functional
[12] = target: T7, Microphthalmia-associated transcription factor (Homo sapiens, UniProt O75030); assay: TRPM1 promoter luciferase signal decrease, dose response, MITF inhibitor project, cell-based, SK-MEL-5, cherry-picked, set 3 (AID 493073); format: functional
T7 sequence (O75030 whole entry): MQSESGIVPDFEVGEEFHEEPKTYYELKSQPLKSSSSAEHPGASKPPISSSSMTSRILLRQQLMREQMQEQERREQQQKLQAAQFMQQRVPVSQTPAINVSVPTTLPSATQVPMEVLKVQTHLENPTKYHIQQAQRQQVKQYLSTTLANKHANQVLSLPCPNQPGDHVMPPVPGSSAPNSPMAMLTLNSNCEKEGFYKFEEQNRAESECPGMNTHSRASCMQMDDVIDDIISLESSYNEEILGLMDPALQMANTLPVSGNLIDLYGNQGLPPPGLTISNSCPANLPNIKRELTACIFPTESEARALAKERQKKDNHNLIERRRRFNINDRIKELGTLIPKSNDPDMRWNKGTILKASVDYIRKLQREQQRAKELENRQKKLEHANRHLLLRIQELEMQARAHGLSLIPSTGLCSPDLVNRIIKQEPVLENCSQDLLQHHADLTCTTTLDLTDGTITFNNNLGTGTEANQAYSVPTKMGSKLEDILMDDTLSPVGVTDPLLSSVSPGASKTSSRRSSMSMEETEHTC

[13] = target: Luciferin 4-monooxygenase (Photinus pyralis, UniProt P08659); assay: Counter Screen for Luciferase-based Assay Positives. [Related pubchem assays: 620, 618, 411 ]
[14] = target: T8, Heat shock factor protein 1 (Mus musculus, UniProt P38532); assay: inhibition of MG132-induced HSE-luciferase signal, confirmation, cell-based, NIH3T3, luminescence, dose retest (AID 2382); format: functional;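 further: NIH3T3 fibroblasts with HSF1-driven luciferase reporter stressed by proteasome inhibitor MG132; luminescence from HSF1-driven luciferase expression after 8 hours of MG132 stress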
T8 sequence (P38532 whole entry): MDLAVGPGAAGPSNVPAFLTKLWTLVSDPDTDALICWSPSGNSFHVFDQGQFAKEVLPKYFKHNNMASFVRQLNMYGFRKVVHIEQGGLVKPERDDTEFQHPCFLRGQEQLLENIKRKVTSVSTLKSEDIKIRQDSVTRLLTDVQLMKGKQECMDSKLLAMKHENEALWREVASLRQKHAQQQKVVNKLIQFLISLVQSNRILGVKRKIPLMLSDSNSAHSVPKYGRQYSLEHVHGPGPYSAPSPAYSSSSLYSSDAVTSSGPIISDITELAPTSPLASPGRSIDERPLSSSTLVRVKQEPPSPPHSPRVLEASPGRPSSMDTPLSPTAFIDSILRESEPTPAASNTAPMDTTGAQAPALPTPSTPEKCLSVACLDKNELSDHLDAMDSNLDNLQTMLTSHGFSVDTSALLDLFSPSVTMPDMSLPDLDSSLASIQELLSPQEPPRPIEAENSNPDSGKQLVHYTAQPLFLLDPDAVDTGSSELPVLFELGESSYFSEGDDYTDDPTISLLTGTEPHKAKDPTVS

[15] = target: Glyceraldehyde-3-phosphate dehydrogenase (Homo sapiens, UniProt P04406)
[16] = tested on: HT-1080; assay: cytotoxicity in HT1080 fibrosarcoma cells, cell-based, fluorescence readout (AID 620); format: functional; settings: Homo sapiens
[17] = Luminescence Cell-Based Dose Response HTS to Identify Inhibitors of 5'UTR Stem-Loop Driven Prion Protein mRNA Translation in H4 Neuroglioblastoma Cells. [Related pubchem assays: 1827 (Project Summary), 1813 (Primary HTS)]; format: functional
[18] = cytotoxicity toward NIH3T3 fibroblasts, dose response, counter-screen, cell-based, ATP luminescence, mouse fibroblasts (AID 2010); format: functional;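 further: cells exposed to compound for about 90 hours before reading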
[19] = inhibitors of intracellular T. cruzi replication, confirmation, NIH3T3 host cells, beta-gal luminescence (AID 2044); format: functional, cell-based;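 further: intracellular parasites grown in NIH/3T3 mouse fibroblasts as host cells; luminescent beta-galactosidase reporter signal from transgenic T. cruzi replicating inside host cells; inhibitors lower the luminescence signal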
[20] = inhibitors of SNCA 5'UTR-driven reporter translation, confirmation, H4 neuroglioma cells, luminescence (AID 1988); format: functional, cell-based
[21] = control 3'UTR Renilla luciferase suppression, dose response, counter-screen for Shn3 inhibitor project, cell-based, Clone20-Shn3RL, cherry-picked (AID 624133); format: functional
[22] = Shn3 3'UTR reporter inhibitors, dose response, cell-based, Clone20 osteoblasts, firefly luciferase, cherry-picked (AID 624132); format: functional;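 further: firefly luciferase luminescence from reporter carrying the Shn3 3'UTR in osteoblasts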
[23] = HepG2 cell cytotoxicity, dose response, cytotoxicity control for Shn3 inhibitor project, CellTiter-Glo, cherry-picked (AID 624134); format: functional, cell-based
[24] = inhibitors of firefly luciferase expression or activity, dose response, H4 neuroglioma cells, luminescence (AID 1990); format: functional, cell-based
[25] = cytotoxicity in KRAS-transformed pancreatic duct cells, primary screen, cell-based, fluorescence, HTS (AID 431); format: functional; settings: Homo sapiens;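 further: cell line used: HPDE-C7K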
[26] = cytotoxicity in HPDE-C7 cells, cell-based, fluorescence, HTS (AID 430); format: functional; settings: Homo sapiens

T2 sequence (P98170 whole entry): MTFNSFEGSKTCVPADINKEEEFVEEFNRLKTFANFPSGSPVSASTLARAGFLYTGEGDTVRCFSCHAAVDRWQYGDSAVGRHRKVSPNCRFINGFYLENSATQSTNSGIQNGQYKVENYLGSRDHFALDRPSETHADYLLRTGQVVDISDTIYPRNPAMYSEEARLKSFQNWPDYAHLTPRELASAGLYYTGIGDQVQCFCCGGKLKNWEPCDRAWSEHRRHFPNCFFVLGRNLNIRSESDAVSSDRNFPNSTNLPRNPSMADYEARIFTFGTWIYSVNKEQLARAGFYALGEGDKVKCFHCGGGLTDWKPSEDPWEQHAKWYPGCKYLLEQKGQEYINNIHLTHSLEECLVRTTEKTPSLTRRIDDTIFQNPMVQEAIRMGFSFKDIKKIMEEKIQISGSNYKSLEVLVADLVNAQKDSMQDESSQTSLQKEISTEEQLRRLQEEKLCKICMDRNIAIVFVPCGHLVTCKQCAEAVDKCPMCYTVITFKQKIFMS
Trypsin, sequence (P00761 whole entry): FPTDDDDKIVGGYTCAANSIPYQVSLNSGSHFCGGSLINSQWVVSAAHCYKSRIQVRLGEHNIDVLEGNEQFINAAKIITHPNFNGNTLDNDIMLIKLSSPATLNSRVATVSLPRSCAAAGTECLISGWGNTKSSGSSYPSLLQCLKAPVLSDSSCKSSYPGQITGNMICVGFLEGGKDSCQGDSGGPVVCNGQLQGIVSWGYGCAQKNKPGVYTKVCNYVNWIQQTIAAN
Luciferin 4-monooxygenase, sequence (P08659 whole entry): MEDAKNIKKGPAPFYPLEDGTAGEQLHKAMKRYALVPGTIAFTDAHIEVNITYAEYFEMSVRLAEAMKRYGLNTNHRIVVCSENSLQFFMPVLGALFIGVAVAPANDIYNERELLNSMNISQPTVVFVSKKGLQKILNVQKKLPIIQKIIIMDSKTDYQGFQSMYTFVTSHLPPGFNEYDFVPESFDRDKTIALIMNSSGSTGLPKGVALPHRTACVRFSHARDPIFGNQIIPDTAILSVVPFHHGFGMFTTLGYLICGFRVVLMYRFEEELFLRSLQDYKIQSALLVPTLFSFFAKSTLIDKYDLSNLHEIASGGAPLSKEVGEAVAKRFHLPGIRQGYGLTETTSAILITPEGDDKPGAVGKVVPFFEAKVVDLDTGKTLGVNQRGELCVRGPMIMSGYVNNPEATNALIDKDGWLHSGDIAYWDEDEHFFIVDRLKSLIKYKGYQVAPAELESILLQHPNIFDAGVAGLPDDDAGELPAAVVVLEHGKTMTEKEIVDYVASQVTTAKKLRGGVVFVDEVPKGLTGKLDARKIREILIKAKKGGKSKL
Glyceraldehyde-3-phosphate dehydrogenase, sequence (P04406 whole entry): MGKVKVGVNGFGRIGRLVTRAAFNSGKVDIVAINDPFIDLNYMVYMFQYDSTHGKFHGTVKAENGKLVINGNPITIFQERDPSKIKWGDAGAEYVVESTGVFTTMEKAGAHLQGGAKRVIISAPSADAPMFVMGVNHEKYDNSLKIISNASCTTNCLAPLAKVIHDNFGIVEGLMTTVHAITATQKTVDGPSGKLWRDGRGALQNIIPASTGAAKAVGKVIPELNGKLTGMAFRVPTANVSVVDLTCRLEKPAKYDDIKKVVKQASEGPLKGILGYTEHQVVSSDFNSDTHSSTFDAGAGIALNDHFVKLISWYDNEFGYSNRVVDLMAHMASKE

C=CCn1cc(-c2ccccc2)cc(C#N)c1=O
AC50 [1]: 7.96 µM (active)
AC50 [2]: 6.89 µM (active)

Cc1cc(O)n2nc(N)c(N=Nc3ccccc3)c2n1
IC50 [3]: > 100 µM (not active)
IC50 [4]: > 100 µM (inactive)
EC50 [5]: 15.2 µM (active)
EC50 [6]: 37.8 µM (active)

C=C(C)C1CC=C(C)/C(=N/NC(=O)CNc2ccc(C)cc2C)C1 (stereo not drawn)
IC50 [3]: > 100 µM (not active)
IC50 [4]: > 100 µM (inactive)

COc1ccccc1-c1coc2c(CN3CCOCC3)c(O)ccc2c1=O
AC50 [7]: 52.5 µM (active)
AC50 [1]: 44.4 µM (active)
AC50 [2]: 11.8 µM (active)

Cc1cc(C)n2nc(SCc3nnc(SCc4ccccc4C)s3)nc2n1
AC50 [8]: 22.9 µM (active)
IC50 [9]: 5.17 µM (active)

Nc1nc2ccccc2n1CCOc1ccc(Br)cc1
CC50 [10]: 39.4 µM (active)
IC50 [11]: 31.8 µM (active)

Cc1cc(C(=O)Nc2cccc(C(=O)O)c2)oc1C
AC50 [12]: 4.35 µM (active)
EC50 [13]: < 0.2 µM (active)
EC50 [14]: 6.56 µM (active)
IC50 [15]: > 100 µM (not active)
EC50 [16]: > 50 µM (not active)

CCOC(=O)c1nc2cc3n(c(C)c-2c1C)C(C)C(CC)=C3C (stereo not drawn)
AC50 [7]: 8.32 µM (active)
AC50 [1]: 7.97 µM (active)
AC50 [2]: 8.45 µM (active)

c1ccc(CCNc2ccnc3cc4ccccc4cc23)cc1
AC50 [7]: 12.8 µM (active)
AC50 [1]: 11.2 µM (active)
AC50 [2]: 94 µM (active)
EC50 [17]: 17.3 µM (active)
EC50 [18]: > 30 µM (not active)
EC50 [19]: 1.68 µM (active)
EC50 [20]: 7.98 µM (active)
AC50 [21]: 3.45 µM (active)
AC50 [22]: 1.62 µM (active)
AC50 [23]: 8.78 µM (active)
EC50 [24]: > 120 µM (not active)

O=C(Oc1cccc2cccnc12)c1ccc2c(c1)OCCO2
EC50 [25]: 7.02 µM (active)
CC50 [10]: 22.8 µM (active)
EC50 [26]: 5.8 µM (active)
IC50 [11]: 3.9 µM (active)
